This is an account of results in PubChem BioAssay AID2060326 (Molecular Pharmacology Branch, DTP, NCI, 2025).

This experiment concerns MDA-MB-468 multi-cell spheroids, viability. Put plainly: Anticancer human tumor MDA-MB-468 cell line growth inhibition [IpAb].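 As to all read-outs here: spheroids exposed to agents for seven days.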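 As to viability, T/C: 100% = DMSO vehicle control viability.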 Conditions: for viability, T/C: stronger effect = lower value. The method, boiled down:
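Combinations with ipatasertib or abemaciclib were tested on tumour spheroids holding HUVEC (25%) and MSC (15%) alongside 60% malignant cells. Top concentration was at or near clinical Cmax (10 microM if undefined), descending in half-log steps.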

[1] abbreviates: curve of first compound, second compound 0.1 µM.
[2] abbreviates: curve of first compound, second compound 0.316 µM.
Where [3] appears, read: curve of first compound, second compound 1 µM.
Setting [4] is: second compound 0.1 µM, first compound 0.0316 µM.
Where [5] appears, read: second compound 0.1 µM, first compound 0.1 µM.
Where [6] appears, read: second compound 0.1 µM, first compound 0.316 µM.
Where [7] appears, read: second compound 0.1 µM, first compound 1 µM.
Setting [8] is: second compound 0.1 µM, first compound 3.16 µM.
Setting [9] is: second compound 0.1 µM, first compound 10 µM.
Where [10] appears, read: second compound 0.316 µM, first compound 0.0316 µM.
Where [11] appears, read: second compound 0.316 µM, first compound 0.1 µM.
The mark [12] stands for this setting: second compound 0.316 µM, first compound 0.316 µM.
Where [13] appears, read: second compound 0.316 µM, first compound 1 µM.
Where [14] appears, read: second compound 0.316 µM, first compound 3.16 µM.
Where [15] appears, read: second compound 0.316 µM, first compound 10 µM.
Where [16] appears, read: second compound 1 µM, first compound 0.0316 µM.
Setting [17] is: second compound 1 µM, first compound 0.1 µM.
[18] abbreviates: second compound 1 µM, first compound 0.316 µM.
Where [19] appears, read: second compound 1 µM, first compound 1 µM.
Setting [20] is: second compound 1 µM, first compound 3.16 µM.
Where [21] appears, read: second compound 1 µM, first compound 10 µM.
Setting [22] is: curve of first compound, second compound 3.16 µM.
The mark [23] stands for this setting: curve of first compound, second compound 10 µM.

Where “and” joins values, the source holds several entries; their conditions need not be identical. Equal entries are not always repeated.

As usually defined, the IC50 is the concentration at which inhibition is half-maximal. Broadly, the viability, T/C is the ratio of treated to control. As for `Cn1nccc1Nc1nccc(-c2ccn(C(CO)c3ccc(Cl)c(F)c3)c(=O)c2)n1` (stereo not drawn) + CCN1CCN(Cc2ccc(Nc3ncc(F)c(-c4cc(F)c5nc(C)n(C(C)C)c5c4)n3)nc2)CC1, the half-inhibitory concentration (IC50) reads like this: (curve of first compound, second compound 0.01 µM) 4350 nM; (curve of first compound, second compound 0.0316 µM) 4700 nM; under setting [1], 3830 nM; under setting [2], 4190 nM; under setting [3], 4420 nM. Moreover, the viability, T/C (second compound 0.01 µM, first compound 0.0316 µM) was 92%; the viability, T/C (second compound 0.01 µM, first compound 0.1 µM) is 83%; the viability, T/C (second compound 0.01 µM, first compound 0.316 µM) is 86%; the viability, T/C (second compound 0.01 µM, first compound 1 µM) was 77.7%; the viability, T/C (second compound 0.01 µM, first compound 3.16 µM) is 70%; the viability, T/C (second compound 0.01 µM, first compound 10 µM) is 3.11%. Further, the viability, T/C is, setting by setting: (second compound 0.0316 µM, first compound 0.0316 µM) 93.3%; (second compound 0.0316 µM, first compound 0.1 µM) 77.9%; (second compound 0.0316 µM, first compound 0.316 µM) 71%; (second compound 0.0316 µM, first compound 1 µM) 84.6%; (second compound 0.0316 µM, first compound 3.16 µM) 73.1%; (second compound 0.0316 µM, first compound 10 µM) 6.23%. In addition, the viability, T/C reads like this: under setting [4], 93.6%; under setting [5], 87.5%; under setting [6], 86.2%; under setting [7], 83.1%; under setting [8], 58.5%; under setting [9], 5.62%. Also, the viability, T/C is, setting by setting: under setting [10], 104%; under setting [11], 92.2%; under setting [12], 89.2%; under setting [13], 78.7%; under setting [14], 68.2%; under setting [15], 9.01%. In addition, the viability, T/C under setting [16] was 86.5%; the viability, T/C under setting [17] is 78.8%; the viability, T/C under setting [18] is 74.5%; the viability, T/C under setting [19] is 85.9%; the viability, T/C under setting [20] was 64.2%; the viability, T/C under setting [21] is 15.3%.
Consider `Cn1cnc2c(F)c(Nc3ccc(Br)cc3Cl)c(C(=O)NOCCO)cc21` + CC(C)NCC(C(=O)N1CCN(c2ncnc3c2C(C)CC3O)CC1)c1ccc(Cl)cc1, for which the IC50 is 435 nM under setting [1]; 54.8 nM under setting [2]; < 9.49 nM under setting [3]; < 9.49 nM under setting [22]; < 9.49 nM under setting [23]. Further, the viability, T/C was 72.6% (second compound 0.1 µM, first compound 0.00949 µM); 72.2% (second compound 0.1 µM, first compound 0.03 µM); 63.4% (second compound 0.1 µM, first compound 0.0949 µM); 53.6% (second compound 0.1 µM, first compound 0.3 µM); 41.2% (second compound 0.1 µM, first compound 0.949 µM); 21.2% (second compound 0.1 µM, first compound 3 µM). Moreover, the viability, T/C (second compound 0.316 µM, first compound 0.00949 µM) is 66.3%; the viability, T/C (second compound 0.316 µM, first compound 0.03 µM) was 49%; the viability, T/C (second compound 0.316 µM, first compound 0.0949 µM) was 46.7%; the viability, T/C (second compound 0.316 µM, first compound 0.3 µM) was 35%; the viability, T/C (second compound 0.316 µM, first compound 0.949 µM) was 28.8%; the viability, T/C (second compound 0.316 µM, first compound 3 µM) was 8.58%. In addition, the viability, T/C by setting is: (second compound 1 µM, first compound 0.00949 µM) 50.4%; (second compound 1 µM, first compound 0.03 µM) 38.7%; (second compound 1 µM, first compound 0.0949 µM) 41.4%; (second compound 1 µM, first compound 0.3 µM) 24.2%; (second compound 1 µM, first compound 0.949 µM) 16.6%; (second compound 1 µM, first compound 3 µM) 3.5%. Also, the viability, T/C (second compound 3.16 µM, first compound 0.00949 µM) is 34.8%; the viability, T/C (second compound 3.16 µM, first compound 0.03 µM) is 28.4%; the viability, T/C (second compound 3.16 µM, first compound 0.0949 µM) is 22.2%; the viability, T/C (second compound 3.16 µM, first compound 0.3 µM) is 18%; the viability, T/C (second compound 3.16 µM, first compound 0.949 µM) was 5.62%; the viability, T/C (second compound 3.16 µM, first compound 3 µM) is 0.63%. The viability, T/C (second compound 10 µM, first compound 0.00949 µM) is 13.7%; the viability, T/C (second compound 10 µM, first compound 0.03 µM) is 13.5%; the viability, T/C (second compound 10 µM, first compound 0.0949 µM) was 7.27%; the viability, T/C (second compound 10 µM, first compound 0.3 µM) was 3.11%; the viability, T/C (second compound 10 µM, first compound 0.949 µM) was 0.84%; the viability, T/C (second compound 10 µM, first compound 3 µM) is 0.43%.
As for `C=CC(=O)N1CCN(c2nc(=O)n(-c3c(C)ccnc3C(C)C)c3nc(-c4c(O)cccc4F)c(F)cc23)C(C)C1` (stereo not drawn), the viability, T/C reads like this: (compound 0.0316 µM) 90.5% and 115%; (compound 0.1 µM) 103% and 119%; (compound 0.316 µM) 121% and 129%; (compound 1 µM) 105%; (compound 3.16 µM) 93.5% and 110%; (compound 10 µM) 35.1% and 37.1%. Also, the IC50 (curve of compound) was 7490 nM and 8200 nM.
Take `C=CCn1c(=O)c2cnc(Nc3ccc(N4CCN(C)CC4)cc3)nc2n1-c1cccc(C(C)(C)O)n1`: the viability, T/C (compound 0.0316 µM) is 80.6% and 99.8%; the viability, T/C (compound 0.1 µM) was 94.4% and 96.1%; the viability, T/C (compound 0.316 µM) was 77.9% and 78.9%; the viability, T/C (compound 1 µM) is 6.3% and 7.75%; the viability, T/C (compound 3.16 µM) is 3.1% and 3.7%; the viability, T/C (compound 10 µM) is 2.62% and 3.3%. Also, the IC50 (curve of compound) is 495 nM and 505 nM.
With `CCCS(=O)(=O)Nc1ccc(F)c(C(=O)c2c[nH]c3ncc(-c4ccc(Cl)cc4)cc23)c1F`, the viability, T/C runs as follows: (compound 0.0316 µM) 99.5% and 107%; (compound 0.1 µM) 99% and 91.6%; (compound 0.316 µM) 95% and 103%; (compound 1 µM) 100% and 109%; (compound 3.16 µM) 97.5% and 106%; (compound 10 µM) 66.3% and 75.8%. Also, the concentration for half-maximal inhibition (IC50) (curve of compound) was > 10000 nM.
For `Cn1nccc1Nc1nccc(-c2ccn(C(CO)c3ccc(Cl)c(F)c3)c(=O)c2)n1` (stereo not drawn) + CC(C)NCC(C(=O)N1CCN(c2ncnc3c2C(C)CC3O)CC1)c1ccc(Cl)cc1, the IC50 was 3290 nM under setting [1]; 1350 nM under setting [2]; 417 nM under setting [3]; < 31.6 nM under setting [22]; < 31.6 nM under setting [23]. Besides, the viability, T/C is, setting by setting: under setting [4], 90.7%; under setting [5], 88.3%; under setting [6], 85%; under setting [7], 65.3%; under setting [8], 57.3%; under setting [9], 2.08%. The viability, T/C was 66% under setting [10]; 54.9% under setting [11]; 62% under setting [12]; 46.3% under setting [13]; 44.3% under setting [14]; 0.8% under setting [15]. In addition, the viability, T/C by setting is: under setting [16], 57.9%; under setting [17], 56%; under setting [18], 51.3%; under setting [19], 42%; under setting [20], 16.4%; under setting [21], 0.2%. Besides, the viability, T/C is 38.6% (second compound 3.16 µM, first compound 0.0316 µM); 38.9% (second compound 3.16 µM, first compound 0.1 µM); 37% (second compound 3.16 µM, first compound 0.316 µM); 23.4% (second compound 3.16 µM, first compound 1 µM); 5.84% (second compound 3.16 µM, first compound 3.16 µM); 0.17% (second compound 3.16 µM, first compound 10 µM). Also, the viability, T/C was 18.8% (second compound 10 µM, first compound 0.0316 µM); 15.8% (second compound 10 µM, first compound 0.1 µM); 19% (second compound 10 µM, first compound 0.316 µM); 9.63% (second compound 10 µM, first compound 1 µM); 1.96% (second compound 10 µM, first compound 3.16 µM); 0.26% (second compound 10 µM, first compound 10 µM).
With `COc1c(OCCCN2CCOCC2)ccc2c3n(c(=NC(=O)c4cnc(N)nc4)nc12)CCN3`, the viability, T/C runs as follows: (compound 0.00316 µM) 89% and 95.1%; (compound 0.01 µM) 95% and 91.5%; (compound 0.0316 µM) 73% and 72.7%; (compound 0.1 µM) 63.9% and 66.5%; (compound 0.316 µM) 25.6% and 23.6%; (compound 1 µM) 4.06% and 3.22%. The IC50 (curve of compound) is 141 nM and 139 nM.
